Measured values as given in US8481005B2, “Methods to prevent cytotoxicity using N-acetyl-cysteine” (priority 2006, dated 2013).

Columns and labels:
[1] = system: human dental pulp stromal cells; experiment: VEGF release from human dental pulp stromal cells (Table 4); assay type: cell-based
Description: (§1) The cells were then grown in media containing β-glycerophosphate and ascorbic acid until they reached confluency. […] Supernatants were measured for VEGF release.

[2] = system: UCLA-2 cells (a primary oral tumor line); experiment: VEGF release from UCLA-2 cells (Table 4); assay type: cell-based
Description: as §1

[3] = system: RAW 264.7 cells
Description: (§2) RAW 264.7 cells (murine macrophages) were obtained from American Type Culture Collection (ATCC) and were cultured in a 5% CO2 atmosphere in DMEM (purchased from Cellgro (Herndon, Va.)) containing 10% FCS, 1% penicillin-streptomycin, 1% sodium pyruvate, 1% non essential amino acids and 1% glutamine. THP-1 cells (human macrophages) were obtained from ATCC and were cultured under the same conditions, with RMPI 1640 containing 10% FCS, 1% penicillin-streptomycin, 1% sodium pyruvate and 1% non essential amino acids.
(§3) Dose-dependent apoptosis was measured by FITC-Annexin V/Propidium iodide kits (Miami, Fla.). Cells were plated in six-well/twelve well plates. […] Cells were washed twice with PBS and centrifuged at about 2000 rpm for about 5 minutes and resuspended in binding buffer (provided in the kit) along with FITC-Annexin V/Propidium iodide (PI) according to manufacturer's instructions. After incubating on ice (light protected) for about 15 minutes, samples were analyzed by flow cytometry. Flow cytometric analysis was performed using a flow cytometer equipped with a single 488-nm argon laser. Dead cell fragments were gated out by forward and side scatter analysis. […] Forward and side scatter were used to gate out cellular fragments.
(§4) After an overnight incubation, the levels of cell death were determined using PI staining of ethanol fixed cells. Specifically, cells were washed twice with PBS before they were treated with 70% ethanol (250 μl). Ethanol was added dropwise and then the cells were incubated on ice for 30 minutes. The cells were then washed twice with PBS and resuspended in 1 ml PBS to which PI at a final concentration of 1 mg/ml was added. The samples were then analyzed using the flow cytometer.
(§5) In FIGS. 2A and 2B, the numbers in each histogram represent the percentage of Sub Go/G1 fragmented cell populations. Ten thousand events were analyzed for each sample.

[4] = system: THP-1 cells
Description: as §2, §3, §4, §5

[5] = system: peripheral blood mononuclear cells; experiment: PI/Annexin V apoptosis in peripheral blood mononuclear cells; assay type: cell-based, human; conditions: PBMCs, overnight
Description: PBMCs were isolated and obtained after Ficoll-hypaque centrifugation as described in Jewett et al., 159, J. Immunol. (1997) which is hereby incorporated by reference. Specifically, human peripheral blood was obtained from normal donors in the laboratory as per guidelines of the UCLA Human Subject Protection Committee. The blood was fractionated on Ficoll-Hypaque, and the buffy layer was harvested, washed and resuspended in media.
Peripheral blood mononuclear cells were then cultured in RPMI 1640 supplemented with 10% FCS, 1% penicillin-streptomycin, 1% sodium pyruvate and 1% non-essential amino acids.
Cells were simultaneously treated in the presence and absence of NAC overnight. […] It is quite well known that apoptotic cells initially lose their size and gain in granularity when they undergo cell death. These changes are one hallmark of apoptosis.

[6] = system: Caspase 3; experiment: Caspase 3 induction in Jurkat cells; assay type: cell-based; conditions: HEMA alone or with NAC 20 mM
[7] = system: GAPDH; experiment: GAPDH protein in dental pulp stromal cells (KDalert GAPDH assay kit); assay type: cell-based; conditions: HEMA (0.082M) alone or with NAC 20 mM, 4 hours
Description: After 4 hours of incubation the protein levels of GAPDH were determined using a KDalert GAPDH assay kit (Ambion). This assay is a fluorescent based assay which measures the conversion of NAD+ to NADH catalyzed by GAPDH.

[8] = system: osteoblasts; experiment: Cell death of osteoblasts differentiated from mesenchymal stem cells; assay type: cell-based
Description: In a subsequent study, mesenchymal stem cells were differentiated to osteoblasts in differentiation media. […] Treated osteoblasts were then removed and cell death was determined using FITC-Annexin V and PI staining.

[9] = system: HEp2 cells co-cultured with PBMCs; experiment: VEGF in co-cultures of HEMA/NAC treated HEp2 cells with PBMCs (multiplex cytokine array); assay type: cell-based, human; design: unit not given here
[10] = system: differentiated pulp cells (odontoblasts); experiment: Composite discs on differentiated pulp cells, FITC-Annexin V/PI; assay type: cell-based; conditions: completely cured composite discs in 0.4 μm inserts; one week
Description: Next, the effects of routinely used composites on the odontoblasts were tested. The composite discs were made according to ADA specifications. These discs were completely cured for a total time of about 90 seconds. The discs were then placed into culture dish inserts (Millipore, Calif.). […] The insert along with the composite disc were placed into the well containing the differentiated pulp cells. After one week of incubation at about 37° C. the cells were removed and the numbers of apoptotic cells were analyzed using FITC-Annexin V/PI as described previously.

[11] = system: human dental pulp stromal cells; experiment: ALP staining of human dental pulp stromal cells; assay type: cell-based; conditions: after 7 days of incubation; NAC 20 mM
Description: Following the experiment described above in human dental pulp stromal cells, treatments were carried out as described above with the levels of ALP staining representing maturation/differentiation of dental pulp stromal cells. This staining was performed after 7 days of incubation. […] Odontoblasts

[12] = system: teeth and surrounding tissue; experiment: Rat tooth bleaching with or without NAC: photographs of teeth and tissue; assay type: in vivo
Description: Rats were divided into the following groups: A: control, unbleached; B: bleached with no NAC; and C: Bleached with NAC. The bleaching agent used in the following studies was Oral B Rembrandt whitening system (containing 33% hydrogen peroxide and carbamide) often used in dental offices (chair side). NAC was initially painted on teeth at a 20 mM concentration for 5 minutes. Next a bleaching agent was applied for 5 hours, after which the teeth were extracted, and pulp was obtained from each group and treated with trypsin/EDTA (0.25%) and collagenase (0.02%). […] Also note that bleaching in the presence of NAC (F) was as effective as bleaching without the NAC (E). […] Note the white tissue in the absence of NAC which represents dead and dying tissue.

[13] = system: gingival cells; experiment: Bleaching agent on rat palatal gingiva: gingival cell growth; assay type: in vivo, rats; conditions: bleaching agent on palatal gingiva 5 hours, without or with NAC; cells grown 21 days
Description: For gingival cells, the bleaching agent was applied in the same order of experimental groups to the palatal gingiva for 5 hours, washed and excised and minced and treated with collagenase (0.01%) for 48 hours before the single cell suspensions were prepared by washing and resuspending in DMEM. The cells were allowed to grow to confluency for 21 days before photographs were taken. […] FIG. 46 provides a graphical representation of cell survival.

[14] = HEMA 0.00164M, alone or with NAC
[15] = HEMA 0.0082M, alone or with NAC
[16] = HEMA 0.0164M, alone or with NAC
[17] = 0.0164M HEMA alone (HEMA) or also treated with NAC (NAC)
[18] = NAC 20 mM pretreatment about 8 hours or simultaneous, overnight

C=C(C)C(=O)OCCO [HEMA, hydroxyethyl methacrylate]
Human dental pulp stromal cells (VEFG secretion) [1, 14]: 163.7 pg/mL
Human dental pulp stromal cells (VEFG secretion) [1, 15]: 125.1 pg/mL
Human dental pulp stromal cells (VEFG secretion) [1, 16]: 113.4 pg/mL
UCLA-2 (VEFG secretion) [2, 14]: 3258.8 pg/mL
UCLA-2 (VEFG secretion) [2, 15]: 319.6 pg/mL
UCLA-2 (VEFG secretion) [2, 16]: 180.2 pg/mL
HEMA-mediated cell death and cytotoxicity (FITC-Annexin V/PI) ([3]; HEMA about 18 hours): detected at millimole to micromole concentrations
HEMA-mediated cell death and cytotoxicity (FITC-Annexin V/PI) ([4]; HEMA about 18 hours): detected at millimole to micromole concentrations
cells in the stage of late apoptosis (PI/Annexin V) ([5]; 0.0082M HEMA alone (HEMA) or also treated with NAC (NAC)): 39%
cells in the stage of late apoptosis (PI/Annexin V) [5, 17]: about 45%
Caspase 3 induction [6]: increase in Caspase 3 induction
GAPDH protein expression [7]: significant decrease in GAPDH protein expression
cells that underwent cell death ([8]; osteoblasts, 0.0164M HEMA): 49.7%
VEGF ([9]; HEp2 +0.00164M HEMA, −/+NAC, Patient PBMC +IL-2): 7760
VEGF ([9]; HEp2 +0.00164M HEMA, −/+NAC, Patient PBMC −IL-2): 6550
VEGF ([9]; HEp2 +0.0164M HEMA, −/+NAC 20 mM, about 18 hours, Patient PBMC −IL-2): 1161
VEGF ([9]; HEp2 +0.0164M HEMA, −/+NAC, Patient PBMC +IL-2): 379

CC(=O)N[C@@H](CS)C(=O)O [NAC, N-acetyl-cysteine]
Human dental pulp stromal cells (VEFG secretion) ([1]; NAC alone, no HEMA): 1804.1 pg/mL
UCLA-2 (VEFG secretion) ([2]; NAC alone, no HEMA): 2831.9 pg/mL
inhibition of HEMA-mediated cell death (Sub Go/G1, PI staining) [3, 18]: inhibited HEMA-mediated cell death
inhibition of HEMA-mediated cell death (Sub Go/G1, PI staining) [4, 18]: inhibited HEMA-mediated cell death
cells in the stage of late apoptosis (PI/Annexin V) [5, 17]: about 25%
apoptotic cells (FITC-Annexin V/PI) [10]: inhibits cell death induced by light cured composite disks
HEMA-mediated decrease in ALP [11]: significantly prevented
Caspase 3 induction [6]: decreased the induction of caspase 3 expression
GAPDH protein expression [7]: preventing the decrease in GAPDH protein expression
efficacy or potency of the bleaching system ([12]; NAC 20 mM painted on teeth 5 minutes, then bleaching agent 5 hours): does not decrease the efficacy or potency of the bleaching system
white (dead and dying) tissue after bleaching ([12]; bleaching agent 5 hours, without or with NAC 20 mM): the amount of white tissue is minimal
gingival cell death [13]: ameliorated
prevention of HEMA-mediated cell death ([8]; NAC 20 mM, 18 hours): can prevent HEMA-mediated cell death
VEGF ([9]; HEp2 −HEMA (+NAC 20 mM), Patient PBMC −IL-2): 5648
VEGF ([9]; HEp2 −HEMA (+NAC), Patient PBMC +IL-2): 5805
